Reference: US20230151025A1, “SUBSTITUTED THIAZOLOPYRIDINES, SALTS THEREOF AND THEIR USE AS HERBICIDALLY ACTIVE SUBSTANCES” (Bayer Aktiengesellschaft, priority 2020, published 2023)

Experiments:
Format in all cases: in vivo
Poa annua (POAAN) [1] = assay: Herbicidal pre-emergence action (A), 1280 g/ha; settings: visual grading after ca. 3 weeks vs untreated controls, 100% = plants have died off, 0% = as control plants
Summary of the method: (§1)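 Pre-emergence greenhouse test: seeds sown in sandy loam pots, WP or EC formulations sprayed onto covering soil as aqueous suspension/emulsion with 0.5% additive at 600 l water/ha. Damage graded visually after ca. 3 weeks versus untreated controls, 0% = as control, 100% = plants dead.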

Lolium rigidum (LOLRI) [2] = assay: Herbicidal pre-emergence action (A), 1280 g/ha; settings: visual grading after ca. 3 weeks vs untreated controls, 100% = plants have died off, 0% = as control plants
Summary of the method: as §1

[3] = system: Digitaria sanguinalis (DIGSA); assay: Herbicidal pre-emergence action (A), 1280 g/ha; settings: visual grading after ca. 3 weeks vs untreated controls, 100% = plants have died off, 0% = as control plants
Summary of the method: as §1

[4] = system: Matricaria inodora (MATIN); assay: Herbicidal pre-emergence action (A), 1280 g/ha; settings: visual grading after ca. 3 weeks vs untreated controls
Summary of the method: as §1

[5] = system: Echinochloa crus-galli (ECHCG); assay: Herbicidal pre-emergence action (A), 1280 g/ha; settings: visual grading after ca. 3 weeks vs untreated controls, 100% = plants have died off, 0% = as control plants
Summary of the method: as §1

[6] = system: Kochia scoparia (KCHSC; Bassia scoparia); assay: Herbicidal pre-emergence action (A), 1280 g/ha; settings: visual grading after ca. 3 weeks vs untreated controls
Summary of the method: as §1

[7] = system: Amaranthus retroflexus (AMARE); assay: Herbicidal pre-emergence action (A), 1280 g/ha; settings: visual grading after ca. 3 weeks vs untreated controls
Summary of the method: as §1

[8] = system: Alopecurus myosuroides (ALOMY); assay: Herbicidal pre-emergence action (A), 1280 g/ha; settings: visual grading after ca. 3 weeks vs untreated controls, 100% = plants have died off, 0% = as control plants
Summary of the method: as §1

Veronica persica (VERPE) [9] = assay: Herbicidal pre-emergence action (A), 1280 g/ha; settings: visual grading after ca. 3 weeks vs untreated controls
Summary of the method: as §1

Setaria viridis (SETVI) [10] = assay: Herbicidal pre-emergence action (A), 1280 g/ha; settings: visual grading after ca. 3 weeks vs untreated controls
Summary of the method: as §1

Stellaria media (STEME) [11] = assay: Herbicidal pre-emergence action (A), 1280 g/ha; settings: visual grading after ca. 3 weeks vs untreated controls
Summary of the method: as §1

[12] = system: Digitaria sanguinalis (DIGSA); assay: Herbicidal pre-emergence action (C), 320 g/ha; settings: ca. 3 weeks
Summary of the method: (§2)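 Weed and crop seeds sown in sandy loam; WP or EC formulations applied pre-emergence to the soil surface as aqueous suspension/emulsion with 0.5% additive at 600 l water/ha. Greenhouse-grown under optimum conditions; damage visually scored after ca. 3 weeks versus untreated controls (0% = as control, 100% = plants dead).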

Lolium rigidum (LOLRI) [13] = assay: Herbicidal pre-emergence action (C), 320 g/ha; settings: ca. 3 weeks
Summary of the method: (§3)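 Seeds sown in sandy loam and covered with soil; compounds formulated as WP or EC were sprayed onto the covering soil as aqueous suspension/emulsion with 0.5% additive at 600 l water/ha. Pots kept in greenhouse; damage graded visually after ca. 3 weeks versus untreated controls (0% = as control, 100% = plants dead).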

[14] = system: Echinochloa crus-galli (ECHCG); assay: Herbicidal pre-emergence action (C), 320 g/ha; settings: ca. 3 weeks
Summary of the method: as §3

[15] = system: Amaranthus retroflexus (AMARE); assay: Herbicidal pre-emergence action (C), 320 g/ha; settings: ca. 3 weeks
Summary of the method: as §3

[16] = system: Alopecurus myosuroides (ALOMY); assay: Herbicidal pre-emergence action (C), 320 g/ha; settings: ca. 3 weeks
Summary of the method: as §3

Setaria viridis (SETVI) [17] = assay: Herbicidal pre-emergence action (C), 320 g/ha; settings: ca. 3 weeks
Summary of the method: as §3

[18] = system: Echinochloa crus-galli (ECHCG); assay: Herbicidal post-emergence action (D), 320 g/ha; settings: ca. 3 weeks
Summary of the method: (§4)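 Post-emergence greenhouse spray of WP or EC formulations plus 0.5% additive at 600 l water/ha onto single-leaf-stage plants, 2–3 weeks after sowing in sandy loam. About 3 weeks later, effect was rated visually against untreated controls as % herbicidal effect, where 0% means like control and 100% means plants dead.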

[19] = system: Abutilon theophrasti (ABUTH); assay: Herbicidal post-emergence action (D), 320 g/ha; settings: ca. 3 weeks
Summary of the method: as §4

[20] = system: Amaranthus retroflexus (AMARE); assay: Herbicidal post-emergence action (D), 320 g/ha; settings: ca. 3 weeks
Summary of the method: as §4

[21] = system: Alopecurus myosuroides (ALOMY); assay: Herbicidal post-emergence action (D), 320 g/ha; settings: ca. 3 weeks
Summary of the method: as §4

Poa annua (POAAN) [22] = assay: Herbicidal post-emergence action (B), 1280 g/ha; settings: rated visually after about 3 weeks vs untreated controls
Summary of the method: (§5)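 Post-emergence greenhouse test: weeds in sandy loam treated at the one-leaf stage, 2 to 3 weeks after sowing, with WP or EC formulations plus 0.5% additive at 600 l/ha water. Visual activity versus untreated controls after about 3 weeks (100% = dead, 0% = like control).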

[23] = system: Digitaria sanguinalis (DIGSA); assay: Herbicidal post-emergence action (B), 1280 g/ha; settings: rated visually after about 3 weeks vs untreated controls
Summary of the method: as §5

[24] = system: Matricaria inodora (MATIN); assay: Herbicidal post-emergence action (B), 1280 g/ha; settings: rated visually after about 3 weeks vs untreated controls
Summary of the method: as §5

[25] = system: Echinochloa crus-galli (ECHCG); assay: Herbicidal post-emergence action (B), 1280 g/ha; settings: rated visually after about 3 weeks vs untreated controls
Summary of the method: as §5

[26] = system: Kochia scoparia (KCHSC; Bassia scoparia); assay: Herbicidal post-emergence action (B), 1280 g/ha
Summary of the method: as §5

[27] = system: Abutilon theophrasti (ABUTH); assay: Herbicidal post-emergence action (B), 1280 g/ha; settings: rated visually after about 3 weeks vs untreated controls
Summary of the method: as §5

[28] = system: Amaranthus retroflexus (AMARE); assay: Herbicidal post-emergence action (B), 1280 g/ha; settings: rated visually after about 3 weeks vs untreated controls
Summary of the method: as §5

[29] = system: Alopecurus myosuroides (ALOMY); assay: Herbicidal post-emergence action (B), 1280 g/ha; settings: rated visually after about 3 weeks vs untreated controls
Summary of the method: as §5

Veronica persica (VERPE) [30] = assay: Herbicidal post-emergence action (B), 1280 g/ha
Summary of the method: as §5

Setaria viridis (SETVI) [31] = assay: Herbicidal post-emergence action (B), 1280 g/ha; settings: rated visually after about 3 weeks vs untreated controls
Summary of the method: as §5

Stellaria media (STEME) [32] = assay: Herbicidal post-emergence action (B), 1280 g/ha
Summary of the method: as §5

[33] = system: Polygonum convolvulus (POLCO); assay: Herbicidal pre-emergence action (C), 320 g/ha; settings: ca. 3 weeks
Summary of the method: as §3

[34] = system: Matricaria inodora (MATIN); assay: Herbicidal pre-emergence action (C), 320 g/ha; settings: ca. 3 weeks
Summary of the method: as §3

[35] = system: Abutilon theophrasti (ABUTH); assay: Herbicidal pre-emergence action (C), 320 g/ha; settings: ca. 3 weeks
Summary of the method: as §3

Veronica persica (VERPE) [36] = assay: Herbicidal pre-emergence action (C), 320 g/ha; settings: ca. 3 weeks
Summary of the method: as §3

[37] = system: Polygonum convolvulus (POLCO); assay: Herbicidal post-emergence action (D), 320 g/ha; settings: ca. 3 weeks
Summary of the method: as §4

Viola tricolor (VIOTR) = assay: Herbicidal post-emergence action (D), 320 g/ha; settings: ca. 3 weeks
Summary of the method: as §4

Veronica persica (VERPE) [38] = assay: Herbicidal post-emergence action (D), 320 g/ha; settings: ca. 3 weeks
Summary of the method: as §4

Setaria viridis (SETVI) [39] = assay: Herbicidal post-emergence action (D), 320 g/ha; settings: ca. 3 weeks
Summary of the method: as §4

[40] = system: Digitaria sanguinalis (DIGSA); assay: Herbicidal post-emergence action (D), 320 g/ha; settings: ca. 3 weeks
Description: Seeds of mono- and dicotyledonous weed plants and crop plants were sown, in plastic or organic planting pots, in sandy loam, covered with soil and grown in a greenhouse under controlled growth conditions. 2 to 3 weeks after sowing, the test plants were sprayed in the single-leaf stage. The compounds according to the invention, formulated in form of wettable powders (WP) or as emulsifiable concentrates (EC), were sprayed onto the green plant parts as aqueous suspension or emulsion, with the addition of 0.5% of an additive, at an application rate of 600 l of water/ha (converted). The test plants were placed in the greenhouse for ca. 3 weeks under optimum growth conditions, and then the effect of the preparations was assessed visually in comparison with untreated controls (herbicidal effect in percent (%): 100% effect=plants have died off, 0% effect=as control plants).
Tables D1 to D13 below show the effects of selected compounds of the general formula (I) according to table 1 on various harmful plants and an application rate corresponding to 320 g/ha obtained by the experimental procedure mentioned above.

Avena fatua = assay: Herbicidal pre-emergence action (C), 320 g/ha; settings: ca. 3 weeks
Summary of the method: as §2

Compound | POAAN, herbicidal effect in percent (%) (Poa annua (POAAN) [1]) | LOLRI, herbicidal effect in percent (%) (Lolium rigidum (LOLRI) [2]) | herbicidal effect MATIN [4] [%] | ECHCG, herbicidal effect in percent (%) [5] [%] | herbicidal effect KCHSC [6] [%] | herbicidal effect AMARE [7] [%] | ALOMY, herbicidal effect in percent (%) [8] [%] | herbicidal effect VERPE (Veronica persica (VERPE) [9]) [%] | herbicidal effect LOLRI (Lolium rigidum (LOLRI) [13]) [%] | herbicidal effect ECHCG [14] [%] | herbicidal effect AMARE [15] [%] | herbicidal effect ALOMY [16] [%] | herbicidal effect SETVI (Setaria viridis (SETVI) [17]) [%] | herbicidal effect ECHCG [18] [%] | herbicidal effect ABUTH [19] [%] | herbicidal effect ALOMY [21] [%] | herbicidal effect VERPE (Veronica persica (VERPE) [36]) [%] | herbicidal effect POLCO [37] [%] | herbicidal effect VERPE (Veronica persica (VERPE) [38]) [%] | herbicidal effect SETVI (Setaria viridis (SETVI) [39]) [%] | further results
c1ccc(-c2ccc3scnc3n2)cc1 [Example I-010] | 100 | 100 | 100 | 100 | 90 | 90 | 100 | 90 | 100 | 100 | 90 | 100 | 100 | 90 | 80 | 90 | – | – | – | – | DIGSA, herbicidal effect in percent (%) [3]: 100%; herbicidal effect SETVI (Setaria viridis (SETVI) [10]): 100%; herbicidal effect STEME (Stellaria media (STEME) [11]): 100%; herbicidal effect DIGSA [12]: 100%; herbicidal effect AMARE [20]: 80%; herbicidal activity POAAN (Poa annua (POAAN) [22]): 100%; herbicidal activity DIGSA [23]: 100%; herbicidal activity MATIN [24]: 100%; herbicidal activity ECHCG [25]: 90%; herbicidal effect KCHSC [26]: 100%; herbicidal activity ABUTH [27]: 100%; herbicidal activity AMARE [28]: 100%; herbicidal activity ALOMY [29]: 100%; herbicidal effect VERPE (Veronica persica (VERPE) [30]): 100%; herbicidal activity SETVI (Setaria viridis (SETVI) [31]): 100%; herbicidal effect STEME (Stellaria media (STEME) [32]): 100%
Cc1ccccc1-c1nc2ncsc2cc1C [Example I-018] | – | – | – | – | – | – | – | – | 100 | 100 | 90 | 100 | 100 | – | – | 90 | 90 | 100 | 80 | 80 | herbicidal effect DIGSA [12]: 100%; herbicidal effect POLCO [33]: 90%; herbicidal effect MATIN [34]: 90%; herbicidal effect ABUTH [35]: 80%; herbicidal effect VIOTR (Viola tricolor (VIOTR)): 90%; herbicidal effect AMARE [20]: 90%; herbicidal effect DIGSA [40]: 90%
Fc1ccc(-c2nc3ncsc3cc2Cl)c(F)c1 [Example I-127] | – | – | – | – | – | – | – | – | 80 | 100 | 80 | 90 | 100 | 90 | 80 | 90 | 90 | 90 | 80 | 90 | herbicidal effect AVEFA (Avena fatua): 90%; herbicidal effect MATIN [34]: 80%; herbicidal effect VIOTR (Viola tricolor (VIOTR)): 80%
Clc1cc2scnc2nc1-c1sccc1Cl [Example I-189] | 100 | 90 | 90 | 100 | 90 | 90 | 90 | 90 | – | 100 | 80 | 100 | 100 | 90 | 80 | 90 | 80 | 80 | 80 | 90 | herbicidal effect SETVI (Setaria viridis (SETVI) [10]): 100%; herbicidal effect STEME (Stellaria media (STEME) [11]): 90%; herbicidal effect ABUTH [35]: 80%; herbicidal activity POAAN (Poa annua (POAAN) [22]): 90%; herbicidal activity ECHCG [25]: 100%; herbicidal effect KCHSC [26]: 90%; herbicidal activity AMARE [28]: 90%; herbicidal effect VERPE (Veronica persica (VERPE) [30]): 90%; herbicidal activity SETVI (Setaria viridis (SETVI) [31]): 90%; herbicidal effect STEME (Stellaria media (STEME) [32]): 90%
